One data set has as its system T1, EsiGMD2.
T1 construct: gene GMD2; synthesized gene, pET32a, E. coli BL21(DE3), His-resin purified
Kind of data set: enzyme kinetics (GDP-mannose dehydrogenase activity). The data set is classed as biochemical, Ectocarpus siliculosus. The conditions noted are these: read-out: NAD / k m; co-substrate GDP-mannose; optimum pH 8.75–9, 30–37 °C; unit as in table header, probably a misprint for μM; heading: NAD / k m. The text has this: enzyme kinetics (GDP-mannose dehydrogenase activity) on EsiGMD2

The subject of a further data set is T2, EsiGMD3.
T2 construct: gene GMD3; synthesized gene, pET32a, E. coli BL21(DE3), His-resin purified
Described as above. It is filed as biochemical, Ectocarpus siliculosus. The conditions noted are these: read-out: NAD / k m; co-substrate GDP-mannose; optimum pH 8.75, 30–37 °C; unit as in table header, probably a misprint for μM; heading: NAD / k m. The text has this:
enzyme kinetics (GDP-mannose dehydrogenase activity) on EsiGMD3

Substrate in data set [1]: O=P(O)(O)O[C@H]1O[C@H](CO)[C@@H](O)[C@H](O)[C@H]1O
In words: enzyme kinetics, double reciprocal plot (phosphoglucomutase activity). The data set is classed as biochemical, Saccharina japonica. The conditions noted are these: optimum pH 7.0, 30 °C.

Substrate in data set [2]: O=P(O)(O)O[C@H]1O[C@H](CO)[C@@H](O)[C@H](O)[C@@H]1O
Kind of data set: enzyme kinetics, double reciprocal plot (phosphomannomutase activity). The conditions noted are these: optimum pH 7.4, 25 °C. It is filed as biochemical, Saccharina japonica.

Consider `NC(=O)c1ccc[n+]([C@@H]2O[C@H](COP(=O)(O)OP(=O)(O)OC[C@H]3O[C@@H](n4cnc5c(N)ncnc54)[C@H](O)[C@@H]3O)[C@@H](O)[C@H]2O)c1` [NAD], for which the Km was 79.6 µM in the data set with EsiGMD2 and 43.5 µM in the data set on EsiGMD3.

B1: SjaPMM (Saccharina japonica) (protein)
chain: MSVTKNPRIIALFDVDGTLTAARKEVLPDMVEFIKTLRERITIGVVGGSDLPKQKEQLGESVMEDYDYSFSQNGLVAYKAGELIGQQTISKHVGEENLKKIINWVLKYMSGIDIPVKRGTFIEFRTGMLNISPVGRNCSQEERDAFEQYDNVHKIRETMVAAMREEFADLNLTFSIGGQISFDLFPTGWDKTFCLQFLGEGTAEYDEIHFFGDKTFKGGNDNEIFESERTIGHTVTSPADTIQQCKELFFKD
notes: synthesized gene, pET32a, E. coli BL21(DE3), His-resin purified
B1: the Km is 41.04 µM in data set [1] and 699.41 µM in data set [2].

These data come from article PMC5778160, “Functional genomics analysis reveals the biosynthesis pathways of important cellular components (alginate and fucoidan) of Saccharina” (Current Genetics, 2017).
